The values below come from patent US12678446B2 (PFIZER INC., priority 2020, dated 2026).

For data set [1], the system named is RSV (RSV A2 ECACC, 0709161v). In words: RSV plaque reduction assay. The data set is classed as cell-based, respiratory syncytial virus. Conditions: human respiratory syncytial virus, HepG2, read-out: RSV A2 Plaque EC50, RSV A2 in Hep-G2 cells; mean of at least two experiments unless noted (n = 1). The protocol:
Compounds w ere subjected to RSV plaque reduction assays according to the following protocol.
Hep-G2 cells (ECACC, 85011430) were passaged in flasks and seeded in 24-well plates in DMEM containing antibiotics and supplemented with 10% FBS. During inoculation and subsequent incubation, cells were cultured in DMEM containing 2% FBS. 100 plaque forming unit/well of RSV (RSV A2 ECACC, 0709161v) was mixed with eight serial dilutions of compound. Subsequently, 100 μL of the virus/compound mixtures was added to confluent Hep-G2 cell monolayers. The cells and virus/compound mixtures were incubated at 37° C. in a humidified 5% CO2 incubator for 2 h prior to removal of the inoculum and addition of 1 mL of overlay (DMEM containing 2% FBS and 0.8% CMC) containing compound dilutions. The cells and were incubated at 37° C. in a humidified 5% CO2 incubator for 2 days.
Cells were washed with PBS before adding 75/25% v/v EtOH MeOH, for 3 min. Fixative was removed and plates were washed with PBS. A pre-titrated amount of the primary antibody was added in 200 μL PBS/2% milk powder, and plates incubated for 90 min at 37° C. The plates were washed 3 times with PBS/0.05% Tween20 before addition of rabbit anti-goat horse radish peroxidase in 200 μL PBS/2% milk powder, and incubated for 1 h at 37° C. Following three wash steps with PBS/0.05% Tween20, 200 μL ready-to-use TrueBlue was added and plates were incubated at rt for 10-15 min before washing with water. After removal of water, plates were air-dried in the dark.
Plates were scanned and analysed using the Immunospot S6 Macro analyser, which is equipped with BioSpot analysis software for counting immunostained plaques (virospots). Plaque counts were used to calculate % infection relative to the mean of the plaque count in the virus control wells for RSV. […] Unless otherwise noted, plaque EC50 and cell toxicity CC50 values are a mean of at least two experiments and figures are rounded to whole units.

Data set [2] can be described thus: cell toxicity CC50. To be noted: human; Hep-G2 cells; mean of at least two experiments; read-out: Cell Cytotoxicity CC50. The data set is classed as cell-based.

Each structure is given as a SMILES string. pEC50: −log10 of the molar value.

The pEC50 is the negative decadic logarithm of the EC50, by convention in mol/L. For orientation: CC50 means the concentration giving 50% cytotoxicity.

In the case of `C[C@H]1CCn2nc(-c3cnn(C4CCOCC4)c3)c(C(=O)N[C@H]3N=C(c4ccccc4)c4cccc(F)c4NC3=O)c2O1` [Example 156, (5S)-N-[(3S)-9-fluoro-2-oxo-5-phenyl-1,3-dihydro-1,4-benzodiazepin-3-yl]-5-methyl-2-[1-(oxan-4-yl)pyrazol-4-yl]-6,7-dihydro-5H-pyrazolo[5,1-b][1,3]oxazine-3-carboxamide], in data set [1], the negative-log EC50 (pEC50) is 7.41. In addition, in data set [2], the half-maximal cytotoxic concentration (CC50) is above 25000 nM.

As for `O=C(N[C@H]1N=C(c2ccccc2)c2ccccc2NC1=O)c1c(-c2ccc(F)cc2F)nn2c1OCC(CO)C2` (stereo partly drawn) [Example 131, 2-(2,4-Difluorophenyl)-6-(hydroxymethyl)-N-[(3S)-2-oxo-5-phenyl-1,3-dihydro-1,4-benzodiazepin-3-yl]-6,7-dihydro-5H-pyrazolo[5,1-b][1,3]oxazine-3-carboxamide], the negative-log EC50 (pEC50) in data set [1] was 7.03. Moreover, the CC50 in data set [2] was above 25000 nM.

As to `CCc1ccc(-c2nn3c(c2C(=O)N[C@H]2N=C(c4ccccc4)c4cccc(F)c4NC2=O)O[C@@H](C)CC3)cn1` [Example 127, (5S)-2-(6-Ethylpyridin-3-yl)-N-[(3S)-9-fluoro-2-oxo-5-phenyl-1,3-dihydro-1,4-benzodiazepin-3-yl]-5-methyl-6,7-dihydro-5H-pyrazolo[5,1-b][1,3]oxazine-3-carboxamide], in data set [1], the negative-log EC50 (pEC50) is 7.39. Moreover, in data set [2], the CC50 was above 25000 nM.

With `O=C(N[C@H]1N=C(c2ccccc2)c2ccccc2NC1=O)c1c(-c2cccnc2)nn2c1OCCC2` [Example 16, N-[(3S)-2-Oxo-5-phenyl-1,3-dihydro-1,4-benzodiazepin-3-yl]-2-pyridin-3-yl-6,7-dihydro-H-pyrazolo[5,1-b][1,3]oxazine-3-carboxamide], in data set [1], the negative logarithm of the EC50 (pEC50) is 6.34. Also, in data set [2], the CC50 is above 25000 nM.

Consider `Cc1nn(C)cc1-c1nn2c(c1C(=O)N[C@H]1N=C(c3ccccc3)c3cccc(F)c3NC1=O)O[C@H](C)CC2` [Example 115, (5R)-2-(1,3-Dimethylpyrazol-4-yl)-N-[(3S)-9-fluoro-2-oxo-5-phenyl-1,3-dihydro-1,4-benzodiazepin-3-yl]-5-methyl-6,7-dihydro-5H-pyrazolo[5,1-b][1,3]oxazine-3-carboxamide], for which the negative logarithm of the EC50 (pEC50) in data set [1] is 6.65. In addition, in data set [2], the CC50 was above 25000 nM.

On to `CCCC1COc2c(C(=O)N[C@H]3N=C(c4ccccc4)c4cccc(F)c4NC3=O)c(-c3ccccc3F)nn2C1` (stereo partly drawn) [Example 14, N-[(3S)-9-fluoro-2-oxo-5-phenyl-2,3-dihydro-1H-1,4-benzodiazepin-3-yl]-2-(2-fluorophenyl)-6-propyl-5H,6H,7H-pyrazolo[3,2-b][1,3]oxazine-3-carboxamide], for which, in data set [1], the negative logarithm of the EC50 (pEC50) was 7.44. The half-maximal cytotoxic concentration (CC50) in data set [2] is above 25000 nM.

For the compound `O=C(N[C@H]1N=C(c2ccccc2)c2cccc(F)c2NC1=O)c1c(-c2ccc(F)cc2F)nn2c1OCCC2` [Example 2, 2-(2,4-Difluorophenyl)-N-[(3S)-9-fluoro-2-oxo-5-phenyl-1,3-dihydro-1,4-benzodiazepin-3-yl]-6,7-dihydro-5H-pyrazolo[5,1-b][1,3]oxazine-3-carobxamide], in data set [1], the pEC50 was 7.66. Besides, the cytotoxic concentration (CC50) in data set [2] was above 25000 nM.

For `C[C@@H]1COc2c(C(=O)N[C@H]3N=C(c4ccccc4)c4cccc(F)c4NC3=O)c(-c3ccccc3F)nn2C1` [Example 9, (6S)-N-[(3S)-9-fluoro-2-oxo-5-phenyl-1,3-dihydro-1,4-benzodiazepin-3-yl]-2-(2-fluorophenyl)-6-methyl-6,7-dihydro-5H-pyrazolo[5,1-b][1,3]oxazine-3-carboxamide], the negative-log EC50 (pEC50) in data set [1] was 7.52. Moreover, the CC50 in data set [2] was above 18800 nM.

Consider `CC(O)Cc1ccc(-c2nn3c(c2C(=O)N[C@H]2N=C(c4ccccc4)c4cccc(F)c4NC2=O)O[C@H](C)CC3)cn1` (stereo partly drawn) [Example 78, (5R)-2-[6-(2-Hydroxypropyl)pyridin-3-yl]-5-methyl-N-[(3S)-9-fluoro-2-oxo-5-phenyl-1,3-dihydro-1,4-benzodiazepin-3-yl]-6,7-dihydro-5H-pyrazolo[5,1-b][1,3]oxazine-3-carboxamide], for which, in data set [1], the pEC50 is 6.66. Also, the 50% cytotoxic concentration (CC50) in data set [2] is above 25000 nM.

As to `Cc1ccc(-c2nn3c(c2C(=O)N[C@H]2N=C(c4ccccc4)c4cccc(F)c4NC2=O)O[C@H](C)CC3)c(F)n1` [Example 73, (5R)-2-(2-Fluoro-6-methylpyridin-3-yl)-5-methyl-N-[(3S)-9-fluoro-2-oxo-5-phenyl-1,3-dihydro-1,4-benzodiazepin-3-yl]-6,7-dihydro-5H-pyrazolo[5,1-b][1,3]oxazine-3-carboxamide], the pEC50 in data set [1] was 7.04. The 50% cytotoxic concentration (CC50) in data set [2] was above 25000 nM.

Consider `Cc1cccc(F)c1-c1nn2c(c1C(=O)N[C@H]1N=C(c3ccccc3)c3cccc(F)c3NC1=O)OCCC2` [Example 140, 2-(2-Fluoro-6-methylphenyl)-N-[(3S)-9-fluoro-2-oxo-5-phenyl-1,3-dihydro-1,4-benzodiazepin-3-yl]-6,7-dihydro-5H-pyrazolo[5,1-b][1,3]oxazine-3-carboxamide], for which the pEC50 in data set [1] is 7.42. Moreover, the 50% cytotoxic concentration (CC50) in data set [2] was above 25000 nM.

On to `O=C(N[C@H]1N=C(c2ccccc2)c2ccccc2NC1=O)c1c(-c2cnn(CC(F)(F)F)c2)nn2c1OCCC2` [Example 151, N-[(3S)-2-oxo-5-phenyl-1,3-dihydro-1,4-benzodiazepin-3-yl]-2-[1-(2,2,2-trifluoroethyl)pyrazol-4-yl]-6,7-dihydro-5H-pyrazolo[5,1-b][1,3]oxazine-3-carboxamide], for which, in data set [1], the pEC50 is 6.97. For the same compound, the CC50 in data set [2] is above 25000 nM.

Take `COc1cc(-c2nn3c(c2C(=O)N[C@H]2N=C(c4ccccc4)c4ccccc4NC2=O)O[C@H](C)CC3)ccn1` [Example 49, (5R)-2-(2-Methoxypyridin-4-yl)-5-methyl-N-[(3S)-2-oxo-5-phenyl-1,3-dihydro-1,4-benzodiazepin-3-yl]-6,7-dihydro-5H-pyrazolo[5,1-b][1,3]oxazine-3-carboxamide]: the negative logarithm of the EC50 (pEC50) in data set [1] is 6.61. The CC50 in data set [2] is above 25000 nM.

In the case of `C[C@@H]1CCn2nc(-c3ccoc3)c(C(=O)N[C@H]3N=C(c4ccccc4)c4cccc(F)c4NC3=O)c2O1` [Example 61, (5R)-N-[(3S)-9-fluoro-2-oxo-5-phenyl-1,3-dihydro-1,4-benzodiazepin-3-yl]-2-(3-furyl)-5-methyl-6,7-dihydro-5H-pyrazolo[5,1-b][1,3]oxazine-3-carboxamide], the pEC50 in data set [1] was 6.79. In addition, the CC50 in data set [2] was above 25000 nM.

Consider `O=C(N[C@H]1N=C(c2ccccc2)c2cccc(F)c2NC1=O)c1c(-c2ccccc2F)nn2c1OC(CN1CCCC1)CC2` (stereo partly drawn) [Example 187, N-[(3S)-9-fluoro-2-oxo-5-phenyl-1,3-dihydro-1,4-benzodiazepin-3-yl]-2-(2-fluorophenyl)-5-(pyrrolidin-1-ylmethyl)-6,7-dihydro-5H-pyrazolo[5,1-b][1,3]oxazine-3-carboxamide], for which the pEC50 in data set [1] is 6.60. In data set [2], the cytotoxic concentration (CC50) was above 8840 nM.

For `CC(C)Nc1ccc(-c2nn3c(c2C(=O)N[C@H]2N=C(c4ccccc4)c4cccc(F)c4NC2=O)OCCC3)cn1` [Example 19, N-[(3S)-9-fluoro-2-oxo-5-phenyl-1,3-dihydro-1,4-benzodiazepin-3-yl]-2-[6-(propan-2-ylamino)pyridin-3-yl]-6,7-dihydro-5H-pyrazolo[5,1-b][1,3]oxazine-3-carboxamide], in data set [1], the pEC50 was 7.51. Besides, the CC50 in data set [2] is above 25000 nM.

On to `O=C(N[C@H]1N=C(c2ccccc2)c2ccccc2NC1=O)c1nn2c(c1-c1ccccc1F)OCCC2` [Example 36, 3-(2-Fluorophenyl)-N-[(3S)-2-oxo-5-phenyl-1,3-dihydro-1,4-benzodiazepin-3-yl]-6,7-dihydro-5H-pyrazolo[5,1-b][1,3]oxazine-2-carboxamide], for which the pEC50 in data set [1] is 6.35. Further, the CC50 in data set [2] is above 25000 nM.

Take `Cc1c(-c2nn3c(c2C(=O)N[C@H]2N=C(c4ccccc4)c4cccc(F)c4NC2=O)O[C@H](C)CC3)cnn1C` [Example 121, (5R)-2-(1,5-Dimethylpyrazol-4-yl)-N-[(3S)-9-fluoro-2-oxo-5-phenyl-1,3-dihydro-1,4-benzodiazepin-3-yl]-5-methyl-6,7-dihydro-5H-pyrazolo[5,1-b][1,3]oxazine-3-carboxamide]: the pEC50 in data set [1] was 6.43. Further, the CC50 in data set [2] was above 25000 nM.

Turning to `CC(C)Nc1ccc(-c2nn3c(c2C(=O)N[C@H]2N=C(c4ccccc4)c4cccc(F)c4NC2=O)O[C@@H](C)CC3)cn1` [Example 69], the negative-log EC50 (pEC50) in data set [1] is 7.47. Besides, in data set [2], the cytotoxic concentration (CC50) is above 25000 nM.

Regarding `CS(=N)(=O)c1ccc(-c2nn3c(c2C(=O)N[C@H]2N=C(c4ccccc4)c4cccc(F)c4NC2=O)OCCC3)c(F)c1` (stereo partly drawn) [Example 143, 2-[2-Fluoro-4-(methylsulfonimidoyl)phenyl]-N-[(3S)-9-fluoro-2-oxo-5-phenyl-1,3-dihydro-1,4-benzodiazepin-3-yl]-6,7-dihydro-5H-pyrazolo[5,1-b][1,3]oxazine-3-carboxamide], the negative logarithm of the EC50 (pEC50) in data set [1] was 6.83. The CC50 in data set [2] was above 25000 nM.
